Tests used:
rats = assay: Tail flick analgesia, sc, rats; type: in vivo; settings: Rattus norvegicus, 0.25 h, rats (n=3), 15 mins, cumulative dosing
mice [1] = assay: Gastrointestinal motility assay (charcoal meal transit); settings: FIG. 12C: VM1502 1.5 and 4 mg/kg, 30 min
CD1 mice [2] = assay: Respiratory depression assessment (MouseOx pulse oximeter breath rate)
DOR-1 [3] = target: T1, DOR-1 (Mus musculus, UniProt P32300); assay: [35S]GTPγS functional assay, DOR-1 transfected cell membranes; type: biochemical
T1 construct: expressed in transfected cells; host or cells: CHO

mice [4] = assay: Antisense oligodeoxynucleotide downregulation, tail flick antinociception; type: in vivo, mouse; settings: antisense icv days 1, 3, 5, test day 6; VM1501 1.0 mg/kg sc, VM1502 1.5 mg/kg sc
DOR-1 [5] = target: T1, DOR-1; assay: Competition binding against 125I-IBNtxA in DOR-1/CHO membranes
KOR-1 [6] = target: T2, KOR-1 (Mus musculus, UniProt P33534); assay: Competition binding against 125I-IBNtxA in KOR-1/CHO membranes
T2 construct: expressed in transfected cells; host or cells: CHO

CD1 male mice [7] = assay: Tolerance study, chronic twice daily dosing, tail flick; settings: for ED50: Mus musculus, sc
MOR-1 [8] = target: T3, MOR-1 (Mus musculus, UniProt P42866); assay: Competition binding against 125I-IBNtxA in MOR-1/CHO membranes
T3 construct: expressed in transfected cells; host or cells: CHO

CD1 male mice [9] = assay: Tail flick antinociception, oral by gavage, CD1 male mice; type: in vivo; settings: Mus musculus, orally by gavage
MOR-1 [10] = target: T3, MOR-1; assay: [35S]GTPγS functional assay, MOR-1 transfected cell membranes; type: biochemical
mice [11] = assay: Physical dependence, naloxone-precipitated jumping; settings: VM1502 2x daily 2x ED50, challenge on days 5, 22, 29; 15 min count
CD1 mice [12] = assay: Radiant heat tail flick analgesia, icv, CD1 mice; type: in vivo, mouse; settings: ED50, cumulative dose-response, tail flick 15 min after icv dose
mice [13] = assay: Conditioned place preference / aversion; settings: VM1502 1.3 and 3.2 mg/kg/d, 2 days conditioning
KOR-1 [14] = target: T2, KOR-1; assay: [35S]GTPγS functional assay, KOR-1 transfected cell membranes; type: biochemical
CD1 mice [15] = assay: Radiant heat tail flick analgesia, sc, CD1 mice; type: in vivo; settings: Mus musculus, 0.25 h, ED50, cumulative dose-response, tail flick 15 min after sc dose
CD1 mice [16] = assay: Reversal of tail flick antinociception by selective opioid antagonists, CD1 mice; type: in vivo, mouse; settings: VM1501 1.0 mg/kg sc, VM1502 1.5 mg/kg sc

In the case of `CC[C@@H]1CN2CC[C@]3(Nc4cccc(OC)c4C3=O)C2C[C@@H]1/C(=C\OC)C(=O)OC` (stereo partly drawn) [VM1502, (E)-methyl 2-((1'S,6'S,7'S)-6′-ethyl-4-methoxy-3-oxo-3′,5′,6′,7′,8′,8a′-hexahydro-2′H-spiro[indoline-2,1′-indolizine]-7′-yl)-3-methoxyacrylate], the ED50 (rats) is reported as 1.4 mg/kg, the gastrointestinal transit (mice [1]) is reported as “lowered transit significantly compared with saline (P<0.05) but less than morphine at both doses” and the respiratory rate (CD1 mice [2]; FIG. 12D, 2x antinociceptive ED50: VM1502 1.2 mg/kg sc, morphine 5 mg/kg) is reported as “did not depress respiratory rate”. The respiratory rate (CD1 mice [2]; FIG. 12D, 5x antinociceptive ED50: VM1502 3 mg/kg sc, morphine 10 mg/kg) was “showed signs of respiratory depression albeit significantly less than the equianalgesic dose of morphine”, the respiratory rate (CD1 mice [2]; FIG. 14, 5x antinociceptive ED50: VM1502 3.75 mg/kg sc, VM1512 5.0 mg/kg sc, morphine 10 mg/kg) was “showed signs of respiratory depression albeit significantly less than the equianalgesic dose of morphine” and the IC50 (DOR-1 [3]) was 61 nM. For the same molecule, the “analgesic response after antisense downregulation” value (mice [4]) was “only affected in MOR-1-downregulated mice”, the Ki (DOR-1 [5]) was 3 nM and the Ki (KOR-1 [6]) was 24 nM. It also gave an ED50 (CD1 male mice [7]; 0 h, read-out: analgesic ED50, naïve (day 0)) of 0.63 mg/kg, an ED50 (CD1 male mice [7]; 120 h, read-out: analgesic ED50, day 5) of 1.1 mg/kg and an ED50 (CD1 male mice [7]; 288 h, read-out: analgesic ED50, day 12) of 1.8 mg/kg. For the same molecule, the ED50 (CD1 male mice [7]; 528 h, read-out: analgesic ED50, day 22) was 2 mg/kg, the ED50 (CD1 male mice [7]; 696 h, read-out: analgesic ED50, day 29) was 4.5 mg/kg and the “onset of analgesic tolerance” value (CD1 male mice [7]; dosed 2x daily with 2x antinociceptive ED50) was “very slow onset of tolerance compared with morphine”. The Ki (MOR-1 [8]) was 0.8 nM, the ED50 (CD1 male mice [9]) was 7.5 mg/kg and the EC50 (MOR-1 [10]) was 1.7 nM. For the same molecule, the “physical dependence: number of jumps after naloxone (1 mg/kg)” value (mice [11]) was “not significantly greater than that of mice treated with saline”, the “Analgesia icv” value (CD1 mice [12]) was 0.38 µg and the “conditioned place preference or aversion” value (mice [13]) was “did not produce conditioned place preference or aversion”. The IC50 (KOR-1 [14]) was 31 nM, the ED50 (CD1 mice [15]) was 0.76 mg/kg and the “antinociception after NTI (0.5 mg/kg sc) and norBNI (10 mg/kg sc)” value (CD1 mice [16]) was “insensitive to NTI and norBNI”. For the same molecule, the “antinociception after β-FNA (40 mg/kg sc)” value (CD1 mice [16]) was “antagonized by β-FNA”.

From US12617790B2, “Mitragynine analogs and uses thereof” (Memorial Sloan-Kettering Cancer Center, priority 2015, dated 2026)
